Where a chain is given by its changes, count along the chain named.
Tests used:
Assay in all cases: specific radioligand binding in solution, Scatchard
[1] = molecular target: T1, ORP4L (Homo sapiens, UniProt Q969R2, S762D/S763D/S766D/S768D)
T1 construct: gene OSBP2; about 116 kDa on SDS-PAGE, dimer by cross-linking; residues S762SPSSPSS769 in ORD
T1 sequence (Q969R2 1-916 S762D/S763D/S766D/S768D): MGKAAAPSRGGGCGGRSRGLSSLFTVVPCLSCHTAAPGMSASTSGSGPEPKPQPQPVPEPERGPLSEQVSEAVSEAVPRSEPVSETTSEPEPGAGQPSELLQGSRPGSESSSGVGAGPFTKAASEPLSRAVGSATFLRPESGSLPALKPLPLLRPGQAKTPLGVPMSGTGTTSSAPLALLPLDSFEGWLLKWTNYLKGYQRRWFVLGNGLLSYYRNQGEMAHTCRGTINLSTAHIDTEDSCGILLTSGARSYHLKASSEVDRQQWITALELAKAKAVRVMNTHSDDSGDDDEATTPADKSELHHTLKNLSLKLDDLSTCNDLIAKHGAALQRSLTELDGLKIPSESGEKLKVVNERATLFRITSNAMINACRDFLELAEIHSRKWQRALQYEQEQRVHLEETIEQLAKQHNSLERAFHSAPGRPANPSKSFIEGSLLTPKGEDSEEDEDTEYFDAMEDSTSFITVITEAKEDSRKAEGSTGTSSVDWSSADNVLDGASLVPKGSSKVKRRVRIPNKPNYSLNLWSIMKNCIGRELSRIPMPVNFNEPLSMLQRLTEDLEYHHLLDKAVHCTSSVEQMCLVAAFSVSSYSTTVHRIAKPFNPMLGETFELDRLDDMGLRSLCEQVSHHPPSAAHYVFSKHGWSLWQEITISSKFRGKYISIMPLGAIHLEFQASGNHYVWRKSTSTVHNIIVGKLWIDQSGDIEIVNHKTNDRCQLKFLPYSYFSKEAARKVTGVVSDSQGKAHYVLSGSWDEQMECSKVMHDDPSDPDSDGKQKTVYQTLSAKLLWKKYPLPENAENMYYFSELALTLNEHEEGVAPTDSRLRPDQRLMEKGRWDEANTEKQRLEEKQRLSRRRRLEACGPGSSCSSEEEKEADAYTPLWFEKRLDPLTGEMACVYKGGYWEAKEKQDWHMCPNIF

[2] = molecular target: T2, ORP4L (Homo sapiens, UniProt Q969R2)
T2 construct: gene OSBP2; about 116 kDa on SDS-PAGE, dimer by cross-linking; residues S762SPSSPSS769 in ORD
T2 sequence (Q969R2 1-916): T1 sequence (Q969R2 1-916 S762D/S763D/S766D/S768D) with D762S, D763S, D766S, D768S

[3] = molecular target: T3, ORP4L (Homo sapiens, UniProt Q969R2, S762A/S763A/S766A/S768A)
T3 construct: gene OSBP2; about 116 kDa on SDS-PAGE, dimer by cross-linking; residues S762SPSSPSS769 in ORD
T3 sequence (Q969R2 1-916 S762A/S763A/S766A/S768A): T1 sequence (Q969R2 1-916 S762D/S763D/S766D/S768D) with D762A, D763A, D766A, D768A

SMILES | Kd [1] [nM] | Kd [2] [nM] | Kd [3] [nM]
C[C@H](CCCC(C)(C)O)[C@H]1CC[C@H]2[C@@H]3CC=C4C[C@@H](O)CC[C@]4(C)[C@H]3CC[C@]12C [25OH] | 60 ± 18 | 45 ± 12 | 62 ± 28
CC(C)CCC[C@@H](C)[C@H]1CC[C@H]2[C@@H]3CC=C4C[C@@H](O)CC[C@]4(C)[C@H]3CC[C@]12C [cholesterol] | 144 ± 43 | 160 ± 40 | 255 ± 90

Reference: paper PMC6440634, “Phosphorylation of a serine/proline-rich motif in oxysterol binding protein-related protein 4L (ORP4L) regulates cholesterol and vimentin binding” (PLoS ONE, 2019)
